The values that follow come from paper PMC5218480 (PLoS ONE, 2017).

This assay concerns MV-4-11 cells. Put plainly: Gene expression microarray analysis (Affymetrix PrimeView) and GSEA. Type of assay: cell-based, human. Further details: RFU PODN (11730768_x_at) / Fold change /veh PODN (11730768_x_at) / RFU LINC00158 (11744669_a_at) / Fold change /veh LINC00158 (11744669_a_at) / RFU DUSP10 (11751237_a_at) / Fold change /veh DUSP10 (11751237_a_at) / RFU ID3 (11757404_x_at) / Fold change /veh ID3 (11757404_x_at) / RFU PLEKHG5 (11737974_s_at) / Fold change /veh PLEKHG5 (11737974_s_at) / RFU LRRC4B (11730491_at) / Fold change /veh LRRC4B (11730491_at) / RFU GIMAP4 (11747438_a_at) / Fold change /veh GIMAP4 (11747438_a_at) / RFU KRT8 (11758183_x_at) / Fold change /veh KRT8 (11758183_x_at) / RFU CNN1 (11734310_a_at) / Fold change /veh CNN1 (11734310_a_at) / RFU VPS37D (11726825_at) / Fold change /veh VPS37D (11726825_at) / RFU C10orf10 (11716522_x_at) / Fold change /veh C10orf10 (11716522_x_at) / RFU KIR2DL2 /// KIR2DL4 /// KIR2DL5A /// KIR2DL5B /// KIR2DS1 /// KIR2DS2 /// KIR2DS3 /// KIR2DS4 /// KIR3DL3 /// KIR3DL3 /// KIR3DS1 (11738374_at) / Fold change /veh KIR2DL2 /// KIR2DL4 /// KIR2DL5A /// KIR2DL5B /// KIR2DS1 /// KIR2DS2 /// KIR2DS3 /// KIR2DS4 /// KIR3DL3 /// KIR3DL3 /// KIR3DS1 (11738374_at) / RFU C1QL1 (11718748_at) / Fold change /veh C1QL1 (11718748_at) / RFU TMPRSS4 (11747572_a_at) / Fold change /veh TMPRSS4 (11747572_a_at) / RFU HAMP (11756126_x_at) / Fold change /veh HAMP (11756126_x_at) / RFU RNFT2 (11725882_a_at) / Fold change /veh RNFT2 (11725882_a_at) / RFU NR4A2 (11747474_a_at) / Fold change /veh NR4A2 (11747474_a_at) / RFU ABCC12 (11746883_a_at) / Fold change /veh ABCC12 (11746883_a_at) / RFU TMEM136 (11760407_x_at) / Fold change /veh TMEM136 (11760407_x_at) / RFU CLDN22 /// WWC2 (11732394_at) / Fold change /veh CLDN22 /// WWC2 (11732394_at) / RFU HLA-DPB1 (11760878_x_at) / Fold change /veh HLA-DPB1 (11760878_x_at) / RFU SPINT1 (11716480_a_at) / Fold change /veh SPINT1 (11716480_a_at) / RFU GAP43 (11754022_s_at) / Fold change /veh GAP43 (11754022_s_at) / RFU A4GNT (11735810_at) / Fold change /veh A4GNT (11735810_at) / RFU PRB3 (11715151_x_at) / Fold change /veh PRB3 (11715151_x_at) / RFU TUBB4B (11761932_at) / Fold change /veh TUBB4B (11761932_at) / RFU CAPN14 (11732068_a_at) / Fold change /veh CAPN14 (11732068_a_at) / RFU TMCC2 (11721928_a_at) / Fold change /veh TMCC2 (11721928_a_at) / RFU IRGQ (11745062_a_at) / Fold change /veh IRGQ (11745062_a_at) / RFU FAM174B (11720279_a_at) / Fold change /veh FAM174B (11720279_a_at) / RFU TMPRSS4 (11748680_a_at) / Fold change /veh TMPRSS4 (11748680_a_at) / RFU FAM212B (11763350_a_at) / Fold change /veh FAM212B (11763350_a_at) / RFU PLEKHG5 (11743358_a_at) / Fold change /veh PLEKHG5 (11743358_a_at) / RFU ZSCAN30 (11745921_a_at) / Fold change /veh ZSCAN30 (11745921_a_at) / RFU CMKLR1 (11741424_a_at) / Fold change /veh CMKLR1 (11741424_a_at) / RFU LOC101060620 /// MAPK8IP1 (11723275_at) / Fold change /veh LOC101060620 /// MAPK8IP1 (11723275_at) / RFU SPTSSB (11747773_x_at) / Fold change /veh SPTSSB (11747773_x_at) / RFU PRSS12 (11739890_at) / Fold change /veh PRSS12 (11739890_at) / RFU BIN1 (11741810_x_at) / Fold change /veh BIN1 (11741810_x_at) / RFU WNT11 (11732464_a_at) / Fold change /veh WNT11 (11732464_a_at) / RFU C10orf10 (11716521_a_at) / Fold change /veh C10orf10 (11716521_a_at) / RFU C5orf56 (11738089_at) / Fold change /veh C5orf56 (11738089_at) / RFU CYB561 (11721691_x_at) / Fold change /veh CYB561 (11721691_x_at) / RFU ANKRD19P (11752326_a_at) / Fold change /veh ANKRD19P (11752326_a_at) / RFU OR2T12 /// OR2T33 /// OR2T8 (11738714_s_at) / Fold change /veh OR2T12 /// OR2T33 /// OR2T8 (11738714_s_at) / RFU VCAN (11748164_a_at) / Fold change /veh VCAN (11748164_a_at) / RFU JSRP1 (11732532_at) / Fold change /veh JSRP1 (11732532_at) / RFU KRTAP10-11 (11738290_x_at) / Fold change /veh KRTAP10-11 (11738290_x_at) / RFU MYO3A (11730013_a_at) / Fold change /veh MYO3A (11730013_a_at) / RFU EBF3 (11725865_a_at) / Fold change /veh EBF3 (11725865_a_at) / RFU CAMK2N1 (11719241_x_at) / Fold change /veh CAMK2N1 (11719241_x_at) / RFU C5orf56 (11738088_a_at) / Fold change /veh C5orf56 (11738088_a_at) / RFU OLFML3 (11715873_a_at) / Fold change /veh OLFML3 (11715873_a_at) / RFU LOC100653217 /// NTM (11731650_a_at) / Fold change /veh LOC100653217 /// NTM (11731650_a_at) / RFU MAPK11 (11762145_a_at) / Fold change /veh MAPK11 (11762145_a_at) / RFU FIZ1 (11724087_x_at) / Fold change /veh FIZ1 (11724087_x_at) / RFU OASL (11726364_x_at) / Fold change /veh OASL (11726364_x_at) / RFU SOX15 (11748057_x_at) / Fold change /veh SOX15 (11748057_x_at) / RFU CD79A (11719716_a_at) / Fold change /veh CD79A (11719716_a_at) / RFU HIST1H1D (11736915_at) / Fold change /veh HIST1H1D (11736915_at) / RFU CASKIN2 (11723855_a_at) / Fold change /veh CASKIN2 (11723855_a_at) / RFU LOC730098 (11760151_x_at) / Fold change /veh LOC730098 (11760151_x_at) / RFU OR4N2 (11742367_at) / Fold change /veh OR4N2 (11742367_at) / RFU PRRT2 (11749266_a_at) / Fold change /veh PRRT2 (11749266_a_at) / RFU SNX32 (11753110_a_at) / Fold change /veh SNX32 (11753110_a_at) / RFU CDHR5 (11726645_a_at) / Fold change /veh CDHR5 (11726645_a_at) / RFU RCAN1 (11760418_a_at) / Fold change /veh RCAN1 (11760418_a_at) / RFU FAM167A (11723789_a_at) / Fold change /veh FAM167A (11723789_a_at) / RFU FAM26E (11764081_at) / Fold change /veh FAM26E (11764081_at) / RFU ISYNA1 (11749810_s_at) / Fold change /veh ISYNA1 (11749810_s_at) / RFU ACY1 (11761880_at) / Fold change /veh ACY1 (11761880_at) / RFU 11764098_at / Fold change /veh 11764098_at / RFU SAMD14 (11745864_x_at) / Fold change /veh SAMD14 (11745864_x_at) / RFU NPB (11741838_a_at) / Fold change /veh NPB (11741838_a_at) / RFU TMPRSS6 (11731388_a_at) / Fold change /veh TMPRSS6 (11731388_a_at) / RFU KRTAP10-2 (11738614_at) / Fold change /veh KRTAP10-2 (11738614_at) / RFU ARHGAP8 /// PRR5-ARHGAP8 (11727945_x_at) / Fold change /veh ARHGAP8 /// PRR5-ARHGAP8 (11727945_x_at) / RFU KRTAP5-7 /// NADSYN1 (11734609_at) / Fold change /veh KRTAP5-7 /// NADSYN1 (11734609_at) / RFU RASL12 (11751679_a_at) / Fold change /veh RASL12 (11751679_a_at) / RFU CDKN2B (11736163_a_at) / Fold change /veh CDKN2B (11736163_a_at) / RFU PRF1 (11729649_at) / Fold change /veh PRF1 (11729649_at) / RFU, ZNF638 /// ZNF638-IT1 / Fold change vs veh, ZNF638 /// ZNF638-IT1 / RFU, PANK3 / Fold change vs veh, PANK3 / RFU, SH3YL1 / Fold change vs veh, SH3YL1 / RFU, ZEB2 / Fold change vs veh, ZEB2 / RFU, NRIP1 / Fold change vs veh, NRIP1 / RFU, PTTG1IP / Fold change vs veh, PTTG1IP / RFU, CAPN2 / Fold change vs veh, CAPN2 / RFU, MED14 / Fold change vs veh, MED14 / RFU, SNORA58 / Fold change vs veh, SNORA58 / RFU, C1orf63 / Fold change vs veh, C1orf63 / RFU, LRRFIP1 / Fold change vs veh, LRRFIP1 / RFU, NDUFAF7 / Fold change vs veh, NDUFAF7 / RFU, SLC12A2 / Fold change vs veh, SLC12A2 / RFU, IBTK / Fold change vs veh, IBTK / RFU, ESF1 / Fold change vs veh, ESF1 / Fold change vs veh, TMEM50B / RFU, TAOK1 / Fold change vs veh, TAOK1 / RFU, ACBD3 / Fold change vs veh, ACBD3 / RFU, TMA16 / Fold change vs veh, TMA16 / RFU, RWDD3 / Fold change vs veh, RWDD3 / RFU, BCAT1 / Fold change vs veh, BCAT1 / RFU, EDEM3 / Fold change vs veh, EDEM3 / RFU, TMEM33 / Fold change vs veh, TMEM33 / RFU, WDR75 / Fold change vs veh, WDR75 / RFU, AHCTF1 / Fold change vs veh, AHCTF1 / RFU, TFRC / Fold change vs veh, TFRC / RFU, ZDHHC17 / Fold change vs veh, ZDHHC17 / RFU, NOM1 / Fold change vs veh, NOM1 / RFU, ARL8B / Fold change vs veh, ARL8B / RFU, ZBTB11 / Fold change vs veh, ZBTB11 / RFU, TAMM41 / Fold change vs veh, TAMM41 / RFU, KIAA1704 /// LOC100996395 / Fold change vs veh, KIAA1704 /// LOC100996395 / RFU, ING1 / Fold change vs veh, ING1 / RFU, TRMT61B / Fold change vs veh, TRMT61B / RFU, FUBP3 / Fold change vs veh, FUBP3 / RFU, TP53 / Fold change vs veh, TP53 / RFU, TNKS2 / Fold change vs veh, TNKS2 / RFU, ZFP14 / Fold change vs veh, ZFP14 / RFU, ACTR2 / Fold change vs veh, ACTR2 / RFU, PPP3R1 / Fold change vs veh, PPP3R1 / RFU, PIK3R1 / Fold change vs veh, PIK3R1 / RFU, HNRNPA1 / Fold change vs veh, HNRNPA1 / RFU, RNF170 / Fold change vs veh, RNF170 / RFU, ZNF28 / Fold change vs veh, ZNF28 / RFU, RNGTT / Fold change vs veh, RNGTT / RFU, OGT / Fold change vs veh, OGT / RFU, BRD1 / Fold change vs veh, BRD1 / RFU, MARS / Fold change vs veh, MARS / RFU, ZNF655 / Fold change vs veh, ZNF655 / RFU, FAHD1 / Fold change vs veh, FAHD1 / RFU, BDP1 / Fold change vs veh, BDP1 / RFU, LRRCC1 / Fold change vs veh, LRRCC1 / RFU, ARID1A / Fold change vs veh, ARID1A / RFU, ZNF146 / Fold change vs veh, ZNF146 / RFU, ZNF330 / Fold change vs veh, ZNF330 / RFU, GPN3 / Fold change vs veh, GPN3 / RFU, C9orf123 / Fold change vs veh, C9orf123 / RFU, N4BP2L2 / Fold change vs veh, N4BP2L2 / RFU, ARFIP1 / Fold change vs veh, ARFIP1 / RFU, FAM179B / Fold change vs veh, FAM179B / RFU, BCL10 / Fold change vs veh, BCL10 / RFU, UHRF1BP1L / Fold change vs veh, UHRF1BP1L / RFU, BET1 / Fold change vs veh, BET1 / RFU, CNOT2 / Fold change vs veh, CNOT2 / RFU, ZNF268 / Fold change vs veh, ZNF268 / Fold change vs veh, ZNF507 / RFU, DGCR2 / Fold change vs veh, DGCR2 / RFU, WDSUB1 / Fold change vs veh, WDSUB1 / Fold change vs veh, HSP90B1 /// MIR3652 / RFU, ADSS / Fold change vs veh, ADSS / RFU, GK / Fold change vs veh, GK / RFU, ZNF148 / Fold change vs veh, ZNF148 / RFU, TAF9 / Fold change vs veh, TAF9 / RFU, SLC1A5 / Fold change vs veh, SLC1A5 / RFU, SLMO2 / Fold change vs veh, SLMO2 / RFU, ABCC4 / Fold change vs veh, ABCC4 / RFU, LOC101060439 /// RAP1B / Fold change vs veh, LOC101060439 /// RAP1B / RFU, RFX7 / Fold change vs veh, RFX7 / RFU, GTPBP10 / Fold change vs veh, GTPBP10 / RFU, CNEP1R1 / Fold change vs veh, CNEP1R1 / RFU, BIVM-ERCC5 /// ERCC5 / Fold change vs veh, BIVM-ERCC5 /// ERCC5 / RFU, ILF3 / Fold change vs veh, ILF3 / RFU 11762660_at / Fold change /veh 11762660_at / RFU VCAN (11757783_s_at) / Fold change /veh VCAN (11757783_s_at) / RFU DDX43 (11728927_at) / Fold change /veh DDX43 (11728927_at) / RFU KRT8 (11758188_x_at) / Fold change /veh KRT8 (11758188_x_at) / RFU NKD1 (11759106_at) / Fold change /veh NKD1 (11759106_at) / RFU SRD5A1 (11742802_a_at) / Fold change /veh SRD5A1 (11742802_a_at) / RFU TPSAB1 /// TPSB2 (11721975_s_at) / Fold change /veh TPSAB1 /// TPSB2 (11721975_s_at) / RFU GSTM3 (11746129_a_at) / Fold change /veh GSTM3 (11746129_a_at) / RFU IL23R (11737362_x_at) / Fold change /veh IL23R (11737362_x_at) / RFU TMEM51 (11727254_a_at) / Fold change /veh TMEM51 (11727254_a_at) / RFU PIWIL2 (11732686_x_at) / Fold change /veh PIWIL2 (11732686_x_at) / RFU ORM1 (11744905_x_at) / Fold change /veh ORM1 (11744905_x_at) / RFU CCDC152 (11743942_at) / Fold change /veh CCDC152 (11743942_at) / RFU ECM1 (11717891_a_at) / Fold change /veh ECM1 (11717891_a_at) / RFU IL23R (11748794_a_at) / Fold change /veh IL23R (11748794_a_at) / RFU TNFAIP8L3 (11732012_x_at) / Fold change /veh TNFAIP8L3 (11732012_x_at) / RFU MBOAT4 (11741988_at) / Fold change /veh MBOAT4 (11741988_at) / RFU 11764193_at / Fold change /veh 11764193_at / RFU TMEM53 (11763286_at) / Fold change /veh TMEM53 (11763286_at) / RFU MAGEB2 (11727129_at) / Fold change /veh MAGEB2 (11727129_at) / RFU TMEM200A (11744735_a_at) / Fold change /veh TMEM200A (11744735_a_at) / RFU CCDC152 (11751479_a_at) / Fold change /veh CCDC152 (11751479_a_at) / RFU FAM211A (11726209_a_at) / Fold change /veh FAM211A (11726209_a_at) / RFU RGS16 (11746705_a_at) / Fold change /veh RGS16 (11746705_a_at) / RFU VCAN (11755009_s_at) / Fold change /veh VCAN (11755009_s_at) / RFU RHOB (11743442_s_at) / Fold change /veh RHOB (11743442_s_at) / RFU RGS16 (11720943_a_at) / Fold change /veh RGS16 (11720943_a_at) / RFU RGS16 (11720944_at) / Fold change /veh RGS16 (11720944_at) / RFU, VPS4B / Fold change vs veh, VPS4B / RFU, CREB1 / Fold change vs veh, CREB1 / RFU, DNAJC13 / Fold change vs veh, DNAJC13 / RFU, GNAQ / Fold change vs veh, GNAQ / RFU, CDK5R1 / Fold change vs veh, CDK5R1 / RFU, ZRANB3 / Fold change vs veh, ZRANB3 / RFU, CUL4A / Fold change vs veh, CUL4A / RFU, CCNY / Fold change vs veh, CCNY / RFU, UFL1 / Fold change vs veh, UFL1 / RFU, COG3 / Fold change vs veh, COG3 / RFU, DIAPH2 / Fold change vs veh, DIAPH2 / RFU, SKA2 / Fold change vs veh, SKA2 / RFU, AFF3 / Fold change vs veh, AFF3 / RFU, LMF1 / Fold change vs veh, LMF1 / RFU, IPO11 / Fold change vs veh, IPO11 / RFU, DFFB / Fold change vs veh, DFFB / RFU, FOXP1 / Fold change vs veh, FOXP1 / RFU, CARD8 / Fold change vs veh, CARD8 / RFU, STRN3 / Fold change vs veh, STRN3 / RFU, ADK / Fold change vs veh, ADK / RFU, RASSF2 / Fold change vs veh, RASSF2 / RFU, WIPF1 / Fold change vs veh, WIPF1 / RFU, LARP1B / Fold change vs veh, LARP1B / RFU, RASA1 / Fold change vs veh, RASA1 / RFU, RB1 / Fold change vs veh, RB1 / RFU, PPFIA1 / Fold change vs veh, PPFIA1 / RFU, MAT2A / Fold change vs veh, MAT2A / RFU, CCT5 / Fold change vs veh, CCT5 / RFU, WDR92 / Fold change vs veh, WDR92 / RFU, CUX1 / Fold change vs veh, CUX1 / RFU, TTC7A / Fold change vs veh, TTC7A / RFU, TMEM135 / Fold change vs veh, TMEM135 / RFU, DEPTOR / Fold change vs veh, DEPTOR / RFU, CPM / Fold change vs veh, CPM / RFU, DNAJB6 / Fold change vs veh, DNAJB6 / RFU, CACNA2D3 / Fold change vs veh, CACNA2D3 / RFU, DTX4 / Fold change vs veh, DTX4 / RFU, TFCP2 / Fold change vs veh, TFCP2 / RFU, GMCL1 /// GMCL1P1 / Fold change vs veh, GMCL1 /// GMCL1P1 / RFU, AEBP2 / Fold change vs veh, AEBP2 / RFU, SNHG1 /// SNORD22 /// SNORD25 /// SNORD26 /// SNORD27 /// SNORD28 /// SNORD29 /// SNORD31 / Fold change vs veh, SNHG1 /// SNORD22 /// SNORD25 /// SNORD26 /// SNORD27 /// SNORD28 /// SNORD29 /// SNORD31 / Fold change (Aza/veh), C12orf56 (ProbeSet 11735607_a_at) / Fold change (ACY-1035/veh), C12orf56 (ProbeSet 11735607_a_at) / Fold change (Aza/veh), FGFR1OP (ProbeSet 11751329_s_at) / Fold change (ACY-1035/veh), FGFR1OP (ProbeSet 11751329_s_at) / Fold change (Aza/veh), VPS36 (ProbeSet 11739960_a_at) / Fold change (ACY-1035/veh), VPS36 (ProbeSet 11739960_a_at) / RFU SYPL1 (11715823_x_at) / Fold change /veh SYPL1 (11715823_x_at) / RFU IGFBP7 (11715501_s_at) / Fold change /veh IGFBP7 (11715501_s_at) / RFU REEP3 (11722064_at) / Fold change /veh REEP3 (11722064_at) / RFU IGLL1 (11728026_x_at) / Fold change /veh IGLL1 (11728026_x_at): dose or concentration left out as unconfirmed. The note with it: ProbeSet 11720270_a_at; LIST B.

In the case of `Nc1ncn([C@@H]2O[C@H](CO)[C@@H](O)[C@H]2O)c(=O)n1` [azacitidine], the “RFU, IBTK” value was 397.77 RFU.
